Measured values: patent publication US5215981A, “Polyether antibiotic MI215-NF3 substance, production process thereof, and agent for control of chicken coccidiosis” (Hokko Chemical Industry Co., Ltd., priority 1988, dated 1993)

Tested on: Eimeria tenella
Assay: Anticoccidial activity in chicken inoculated with Eimeria tenella oocysts
Assay type: in vivo
Conditions: for Rate (%) of relative body weight gain / Survival rate (%): 7 days after infection; for Lesion scores: cecum, 7th day after infection; for ACI (Anticoccidial Index): ACI=(relative weight gain+survival rate)-(lesion scores+oocyst scores)
Protocol: The activity of MI215-NF3 substance for controlling chicken coccidiosis was tested as summarized below.
1. Newly-hatched chicken (male) were preliminarily raised for 1 week, and […] chicken were used in the test.
2. The body weights of the chicken were individually measured at the beginning of the test. To make up each test group, ten chicken were selected and alloted in each group so as to minimize variations among the test groups.
3. Chicken were orally inoculated with 5×10^4 oocysts of Eimeria tenella per chick through a stomach probe tube.
4. After the oocyst inoculation, each chick was allowed to take ad libitum a feed which had been prepared by mixing a predetermined amount of MI215-NF3 substance (sodium salt) with a special feed containing no anticoccidial agent. Incidentally, the chicken were also allowed to drink water ad libitum.
5. Up to the 7th day after the oocyst inoculation, the number of oocysts in feces from each chick and the state of the feces were observed everyday.
6. Each chick was anatomized on the 7th day after the infection. Anatomical procedures were as follows.
1) The body weight of each chick was measured.
2) Each chick was sacrificed by dislocation of neck cervical fracture.
3) Each chick was subjected to celiotomy and the cecum was enucleated. The cecum was visually inspected for any lesions on both outer and inner walls of cecum.
4) The cecum thus inspected was individually disintegrated in a homogenizer, whereby a cecum suspension was prepared. The number of oocysts in the suspension was counted.
5) Based on the results of the above inspections, the value of ACI (Anticoccidial Index) was determined in accordance with the evaluation method proposed by Merck & Co., Inc., U.S.A., namely, by the following equation:
ACI=(rate (%) of relative body weight gain+survival rate (%) of
chick)-(lesion scores+oocyst scores)
Upon determination of the above ACI value, the "rate of weight gain" of the chicken in each group of chicken during the test period for estimation of the drug efficacy and the "rate of relative body weight gain" used for the calculation of ACI were evaluated in accordance with the following equations: […]
______________________________________
Rate (%) of body weight gain = [(mean body weight of
chicken at the end of the test - mean body
weight of the chicken at the beginning of
the test) .div. mean body weight of the chicken
at the beginning of the test] × 100.
Rate (%) of relative body weight gain =
[(rate of body weight gain of the treated group
or an infected but non-treated group) .div. rate
of body weight gain of a non-infected and non-
On the other hand, the term "lesion scores" means a value which is obtained by evaluating, in terms of indexes, the results of visual inspection of lesions on an enucleated cecum sample. The term "oocyst scores" means a value which is obtained by evaluating, in terms of indexes, the number of oocysts actually counted. Details of the procedure for the determination of ACI values are described, for example, in the literature compiled by Kiyoshi Tsunoda, "Chicken Coccidiosis", pp 95-101, Chikusan Shuppan Sha (May, 1983).

SMILES | Oocyst scores (100 ppm in feed) | Rate (%) of relative body weight gain (100 ppm in feed) | Survival rate (%) (100 ppm in feed) | Lesion scores (100 ppm in feed) | ACI (Anticoccidial Index) (100 ppm in feed) | Oocyst scores (50 ppm in feed) | Rate (%) of relative body weight gain (50 ppm in feed) | Survival rate (%) (50 ppm in feed) | Lesion scores (50 ppm in feed) | ACI (Anticoccidial Index) (50 ppm in feed)
CC[C@@]1([C@@H]2O[C@@H]([C@H]3O[C@@](O)(CO)[C@H](C)C[C@@H]3C)C[C@@H]2C)CC[C@H]([C@]2(C)CC[C@]3(C[C@H](O)[C@@H](C)[C@@H]([C@@H](C)[C@@H](OC)[C@H](C)C(=O)O)O3)O2)O1 [Monensin] | 20 | 96.13% | 100% | 32.0 | 144.1 |  |  |  |  | 
CC[C@@H](C(=O)[C@@H](C)[C@@H](O)[C@H](C)[C@@H]1O[C@@H]([C@@H](CC)C(=O)O)CC[C@@H]1C)[C@H]1O[C@]2(C=C[C@@H](O)[C@]3(CC[C@@](C)([C@H]4CC[C@](O)(CC)[C@H](C)O4)O3)O2)[C@H](C)C[C@@H]1C [Salinomycin, salinomycin] |  |  |  |  |  | 10 | 71.13% | 100% | 34.0 | 127.1
